From patent US11993598B2, “Compounds for inhibiting EGFR kinase, preparation methods and uses thereof” (WIGEN BIOMEDICINE TECHNOLOGY (SHANGHAI) CO., LTD., priority 2019, dated 2024)
pIC50: −log10 of the molar value.

Experiments:
HER4 = HER4 (Homo sapiens, UniProt Q15303); assay: HER4 biochemical activity assay (HTRF)
Description: (§1) Assay 1: Wild-type EGFR, HER2 and HER4, and mutant EGFR biochemical activity assay
(§2) 10 nL of Serially diluted compounds were transferred to assay plates using the labcyte Echo 550, and 5 uL of 2× enzymes in assay buffer were subsequently dispensed. The assay plate was covered with an adhesive plate seal, and briefly spinned for 30 s at 1000 g. 5 uL of 2× TK-substrate-biotin and ATP mixed in assay buffer were added.
(§3) IC50 was calculated and analyzed using a 4 parametric logistic model.

LU-01-0493 = assay: Patient derived xenograft (PDX) mouse model; format: in vivo, nude mice
Description: (§4) Assay 3. In vivo studies in cell line-derived (CDX) and patient derived xenografts (PDX) mouse models
(§5) Cells (H1975) or tissue pieces (LU0493 and LU0426) were implanted subcutaneously into the left armpit of nude mice. When the average tumor volume reached 100-150 mm^3, mice were randomized by tumor volume and treated with vehicle, compound 1 or poziotinib respectively. Tumor volume and body weight were measured twice per week. Mice were sacrificed on day 21 or day 28, and tumor volume and terminal body weight were recorded. The relative tumor volume, percent of treatment/control values and tumor growth inhibition were calculated and statistics was performed.
(§6) Terminal body weight changes were calculated as percentage of body changes from day 1 to day 21.

LU-01-0426 = assay: Patient derived xenograft (PDX) mouse model; format: in vivo, nude mice
Description: as §4, §5, §6

LU-0387 = assay: Xenograft mouse model LU-0387; format: in vivo, nude mice
EGFR-WT = EGFR-WT (Homo sapiens, UniProt P00533); assay: Wild-type EGFR biochemical activity assay (HTRF)
Description: as §1, §2, §3

[1] = target: Ba/F3_EGFR D770_N771insSVD (Homo sapiens, UniProt P00533, DUP768-770, cells depend on it); assay: Cell proliferation assay (MTT); format: cell-based; settings: three days, read-out: Ba/F3_EGFR D770_N771insSVD IC50
Ba/F3_EGFR D770_N771insSVD, sequence (P00533 with tags, fused parts or gaps DUP768-770): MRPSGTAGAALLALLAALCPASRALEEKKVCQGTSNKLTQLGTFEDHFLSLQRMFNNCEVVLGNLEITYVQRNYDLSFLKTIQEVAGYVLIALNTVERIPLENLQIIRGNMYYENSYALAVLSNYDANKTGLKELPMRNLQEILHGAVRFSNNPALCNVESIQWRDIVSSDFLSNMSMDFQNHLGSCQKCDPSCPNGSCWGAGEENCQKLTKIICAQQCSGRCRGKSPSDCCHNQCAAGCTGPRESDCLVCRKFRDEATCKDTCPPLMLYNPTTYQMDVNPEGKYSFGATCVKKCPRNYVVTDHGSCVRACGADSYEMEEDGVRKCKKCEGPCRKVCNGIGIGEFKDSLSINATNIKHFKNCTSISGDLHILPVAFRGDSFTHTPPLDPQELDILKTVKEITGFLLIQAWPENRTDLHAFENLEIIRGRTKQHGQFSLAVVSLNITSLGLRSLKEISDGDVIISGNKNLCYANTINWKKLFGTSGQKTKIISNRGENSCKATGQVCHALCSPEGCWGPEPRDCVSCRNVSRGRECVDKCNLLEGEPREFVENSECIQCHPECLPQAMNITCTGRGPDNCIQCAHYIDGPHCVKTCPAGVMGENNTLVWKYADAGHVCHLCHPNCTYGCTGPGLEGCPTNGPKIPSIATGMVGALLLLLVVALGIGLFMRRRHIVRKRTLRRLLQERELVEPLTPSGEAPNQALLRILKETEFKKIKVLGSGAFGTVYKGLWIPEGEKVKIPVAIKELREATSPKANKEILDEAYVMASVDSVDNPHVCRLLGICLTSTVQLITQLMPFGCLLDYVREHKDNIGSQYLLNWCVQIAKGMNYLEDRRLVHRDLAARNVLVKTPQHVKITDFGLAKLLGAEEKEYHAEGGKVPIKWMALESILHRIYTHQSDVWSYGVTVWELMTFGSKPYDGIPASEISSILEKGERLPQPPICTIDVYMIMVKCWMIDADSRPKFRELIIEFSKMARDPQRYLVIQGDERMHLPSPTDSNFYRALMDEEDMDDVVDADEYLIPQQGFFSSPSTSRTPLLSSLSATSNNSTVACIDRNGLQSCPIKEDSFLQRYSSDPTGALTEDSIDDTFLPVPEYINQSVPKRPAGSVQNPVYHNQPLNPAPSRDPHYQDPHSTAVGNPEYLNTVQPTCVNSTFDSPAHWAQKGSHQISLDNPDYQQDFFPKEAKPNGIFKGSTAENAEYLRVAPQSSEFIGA
Description: (§7) A431 cells, H1975 and Ba/F3 cells expressing various mutant EGFR were harvested from exponential phase cultures and seeded in 96-well plates at a cell density of 3000 per well for A431 and H1975, and 10000 per well for Ba/F3 cells. After overnight attachment, compounds were 3-fold serially diluted and applied to cells at 30 μM, 10 μM, 3 μM, 1 μM, 0.3 μM, […], 0.03 μM and 0.01 μM with triplicates, and incubated for three days. 20 μL of 5 mg/mL MTT was added afterwards followed by the further addition of 50 μL 10% SDS together with 5% isobutyl alcohol in 0.01 mol/L HCl. The plates were incubated overnight. Absorbance (A) at a wavelength of 570 nm was quantified. Percentage of inhibition was used for the calculation of IC50 based on the bliss method.

[2] = target: Ba/F3_EGFR V769_D770insASV (Homo sapiens, UniProt P00533, DUP767-769, cells depend on it); assay: Cell proliferation assay (MTT); format: cell-based; settings: three days, read-out: Ba/F3_EGFR V769_D770insASV IC50
Description: as §7

[3] = test system: H1975 (EGFR L858R/T790M, NSCLC); assay: Cell proliferation assay (MTT); format: cell-based; settings: Homo sapiens, NCI-H1975, 72 h, three days
Description: as §7

[4] = test system: A431 (wild type EGFR, skin cancer); assay: Cell proliferation assay (MTT); format: cell-based; settings: Homo sapiens, A-431, 72 h, three days
Description: as §7

EGFR L792F = EGFR L792F (Homo sapiens, UniProt P00533, L792F); assay: Mutant EGFR biochemical activity assay (HTRF)
Description: as §1, §2, §3

EGFR T790M = EGFR T790M (Homo sapiens, UniProt P00533, T790M); assay: Mutant EGFR biochemical activity assay (HTRF)
EGFR T790M, sequence (P00533 25-1210 T790M): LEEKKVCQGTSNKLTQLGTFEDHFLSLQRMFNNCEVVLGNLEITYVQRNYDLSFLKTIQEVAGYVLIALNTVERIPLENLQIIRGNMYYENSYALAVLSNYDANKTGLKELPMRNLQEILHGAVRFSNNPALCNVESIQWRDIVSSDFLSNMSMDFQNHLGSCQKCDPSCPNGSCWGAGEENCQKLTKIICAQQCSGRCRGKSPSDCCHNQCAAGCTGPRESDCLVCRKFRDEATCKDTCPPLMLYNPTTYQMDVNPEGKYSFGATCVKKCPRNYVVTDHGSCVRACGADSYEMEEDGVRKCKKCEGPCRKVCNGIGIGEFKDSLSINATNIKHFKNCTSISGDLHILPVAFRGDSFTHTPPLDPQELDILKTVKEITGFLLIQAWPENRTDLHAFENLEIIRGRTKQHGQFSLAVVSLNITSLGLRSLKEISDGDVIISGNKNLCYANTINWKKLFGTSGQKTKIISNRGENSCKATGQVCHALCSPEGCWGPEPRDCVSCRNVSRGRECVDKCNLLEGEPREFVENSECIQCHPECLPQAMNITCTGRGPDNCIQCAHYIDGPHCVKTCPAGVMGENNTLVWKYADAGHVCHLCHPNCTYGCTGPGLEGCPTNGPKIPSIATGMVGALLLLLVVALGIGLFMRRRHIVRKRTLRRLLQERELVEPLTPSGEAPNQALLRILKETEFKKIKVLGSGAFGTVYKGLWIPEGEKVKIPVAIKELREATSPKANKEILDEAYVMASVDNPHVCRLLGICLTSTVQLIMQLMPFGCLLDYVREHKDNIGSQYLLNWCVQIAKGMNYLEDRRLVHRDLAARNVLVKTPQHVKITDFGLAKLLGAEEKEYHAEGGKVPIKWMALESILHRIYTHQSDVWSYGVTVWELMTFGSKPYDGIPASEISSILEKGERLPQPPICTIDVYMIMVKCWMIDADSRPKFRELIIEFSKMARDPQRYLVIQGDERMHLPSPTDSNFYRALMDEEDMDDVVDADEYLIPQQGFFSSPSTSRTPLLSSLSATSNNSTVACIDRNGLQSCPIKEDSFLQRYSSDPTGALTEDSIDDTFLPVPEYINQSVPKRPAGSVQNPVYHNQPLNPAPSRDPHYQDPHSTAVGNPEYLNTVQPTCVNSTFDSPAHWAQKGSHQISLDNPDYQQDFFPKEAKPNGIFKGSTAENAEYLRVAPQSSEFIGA
Description: as §1, §2, §3

EGFR D770GY = EGFR D770GY (Homo sapiens, UniProt P00533, D770Y/INS769G); assay: Mutant EGFR biochemical activity assay (HTRF)
EGFR D770GY, sequence (P00533 with tags, fused parts or gaps INS769G/D770Y limits assumed): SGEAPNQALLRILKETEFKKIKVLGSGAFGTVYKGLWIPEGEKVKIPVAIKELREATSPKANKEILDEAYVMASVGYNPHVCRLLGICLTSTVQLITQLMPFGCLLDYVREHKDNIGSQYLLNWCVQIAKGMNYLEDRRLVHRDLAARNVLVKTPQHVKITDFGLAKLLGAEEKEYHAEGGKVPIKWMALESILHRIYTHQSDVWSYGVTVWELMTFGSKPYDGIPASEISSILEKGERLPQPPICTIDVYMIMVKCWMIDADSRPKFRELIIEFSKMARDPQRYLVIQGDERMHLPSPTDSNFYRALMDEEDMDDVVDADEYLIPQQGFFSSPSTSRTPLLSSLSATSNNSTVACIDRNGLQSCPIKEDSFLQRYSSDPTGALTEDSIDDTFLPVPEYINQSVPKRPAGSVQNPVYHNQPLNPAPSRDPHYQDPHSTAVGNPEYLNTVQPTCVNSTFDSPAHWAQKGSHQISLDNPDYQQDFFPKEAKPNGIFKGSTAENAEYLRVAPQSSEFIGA
Description: as §1, §2, §3

EGFR A763_Y764insFHEA = EGFR A763_Y764insFHEA (Homo sapiens, UniProt P00533, INS763FHEA); assay: Mutant EGFR biochemical activity assay (HTRF); settings: read-out: IC50 (nM) EGFR A763_Y764 insFHEA
Description: as §1, §2, §3

EGFR L792H = EGFR L792H (Homo sapiens, UniProt P00533, L792H); assay: Mutant EGFR biochemical activity assay (HTRF)
Description: as §1, §2, §3

EGFR T790M/L858R = EGFR T790M/L858R (Homo sapiens, UniProt P00533, L858R/T790M); assay: Mutant EGFR biochemical activity assay (HTRF)
EGFR T790M/L858R, sequence (P00533 25-1210 T790M/L858R): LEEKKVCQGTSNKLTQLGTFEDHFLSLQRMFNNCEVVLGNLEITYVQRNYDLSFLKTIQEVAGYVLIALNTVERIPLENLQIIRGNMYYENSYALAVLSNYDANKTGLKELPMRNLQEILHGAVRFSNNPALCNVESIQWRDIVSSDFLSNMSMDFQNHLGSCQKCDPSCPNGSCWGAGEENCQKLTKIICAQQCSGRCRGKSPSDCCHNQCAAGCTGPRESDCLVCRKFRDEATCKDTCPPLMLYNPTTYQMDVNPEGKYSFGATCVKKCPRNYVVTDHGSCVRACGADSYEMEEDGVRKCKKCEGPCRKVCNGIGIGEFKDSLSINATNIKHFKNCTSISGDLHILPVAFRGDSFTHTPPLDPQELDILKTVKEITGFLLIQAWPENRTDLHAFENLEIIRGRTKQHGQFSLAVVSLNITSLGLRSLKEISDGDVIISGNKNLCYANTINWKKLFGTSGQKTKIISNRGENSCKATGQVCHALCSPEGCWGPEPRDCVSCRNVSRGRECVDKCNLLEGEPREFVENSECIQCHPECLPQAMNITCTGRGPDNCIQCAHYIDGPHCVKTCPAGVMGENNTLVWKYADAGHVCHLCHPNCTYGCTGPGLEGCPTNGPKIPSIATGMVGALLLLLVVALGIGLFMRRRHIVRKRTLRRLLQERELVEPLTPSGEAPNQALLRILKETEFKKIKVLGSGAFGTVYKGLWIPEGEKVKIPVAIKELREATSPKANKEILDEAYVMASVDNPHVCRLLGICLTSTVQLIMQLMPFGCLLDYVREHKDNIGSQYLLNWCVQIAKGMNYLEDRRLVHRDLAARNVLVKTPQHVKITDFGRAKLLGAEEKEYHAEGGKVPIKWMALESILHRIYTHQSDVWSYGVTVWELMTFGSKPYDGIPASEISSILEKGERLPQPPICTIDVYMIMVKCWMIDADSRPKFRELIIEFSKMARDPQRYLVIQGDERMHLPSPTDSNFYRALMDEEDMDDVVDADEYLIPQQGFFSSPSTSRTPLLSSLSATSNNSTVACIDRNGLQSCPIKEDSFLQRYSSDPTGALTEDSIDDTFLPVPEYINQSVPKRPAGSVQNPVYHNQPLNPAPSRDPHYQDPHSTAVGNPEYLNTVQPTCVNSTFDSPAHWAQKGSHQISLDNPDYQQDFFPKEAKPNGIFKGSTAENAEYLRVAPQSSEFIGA
Description: as §1, §2, §3

EGFR Del19 = EGFR Del19 (Homo sapiens, UniProt P00533); assay: Mutant EGFR biochemical activity assay (HTRF)
Description: as §1, §2, §3

EGFR D770-N771insNPG = EGFR D770-N771insNPG (Homo sapiens, UniProt P00533, INS770NPG); assay: Mutant EGFR biochemical activity assay (HTRF)
EGFR D770-N771insNPG, sequence (P00533 with tags, fused parts or gaps INS770NPG limits assumed): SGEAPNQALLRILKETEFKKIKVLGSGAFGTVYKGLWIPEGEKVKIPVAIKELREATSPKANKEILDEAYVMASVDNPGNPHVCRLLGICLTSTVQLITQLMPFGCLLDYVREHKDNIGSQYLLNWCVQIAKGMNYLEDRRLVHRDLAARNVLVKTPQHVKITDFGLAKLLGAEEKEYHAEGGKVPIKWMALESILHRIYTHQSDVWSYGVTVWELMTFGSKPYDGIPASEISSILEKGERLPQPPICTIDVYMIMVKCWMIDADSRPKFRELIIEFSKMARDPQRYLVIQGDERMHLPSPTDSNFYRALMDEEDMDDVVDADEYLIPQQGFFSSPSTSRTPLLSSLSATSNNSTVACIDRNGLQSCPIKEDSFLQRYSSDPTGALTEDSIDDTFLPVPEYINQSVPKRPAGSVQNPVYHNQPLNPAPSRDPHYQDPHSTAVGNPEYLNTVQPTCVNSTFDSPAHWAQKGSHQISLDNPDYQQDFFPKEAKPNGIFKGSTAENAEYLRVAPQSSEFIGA
Description: as §1, §2, §3

[5] = target: EGFR D770_N771insNPG T790M (Homo sapiens, UniProt P00533, INS770NPG/T790M); assay: Mutant EGFR biochemical activity assay (HTRF); settings: read-out: IC50 (nM) EGFR D770_N771 insNPG T790M
Description: as §1, §2, §3

C=CC(=O)Nc1cc(Nc2nccc(-n3c(=O)n4c5c(cc(F)cc53)CCC4)n2)c(OC)cc1N(C)CCN(C)C [Compound 1, N-(2-((2-(dimethylamino)ethyl)(methyl)amino)-5-((4-(8-fluoro-2-oxo-5,6-dihydro-4H-imidazo[4,5,1-ij]quinolin-1(2H)-yl)pyrimidin-2-yl)amino)-4-methoxyphenyl)acrylamide]
IC50 (HER4): 0.769 nM
TGI (%) (LU-01-0493; LU-01-0493, 15 mg/kg compound 1): 55.4%
Terminal body weight changes (%) (LU-01-0493; LU-01-0493, 15 mg/kg compound 1, day 1 to day 21): 3.2%
TGI (%) (LU-01-0493; LU-01-0493, 30 mg/kg compound 1): 72.3%
Terminal body weight changes (%) (LU-01-0493; LU-01-0493, 30 mg/kg compound 1, day 1 to day 21): −6.1%
TGI (%) (LU-01-0493; LU-01-0493, 60 mg/kg compound 1): 88.9%
Terminal body weight changes (%) (LU-01-0493; LU-01-0493, 60 mg/kg compound 1, day 1 to day 21): −6.5%
TGI (%) (LU-01-0426; LU-01-0426, 15 mg/kg compound 1): 47%
Terminal body weight changes (%) (LU-01-0426; LU-01-0426, 15 mg/kg compound 1, day 1 to day 21): 5.7%
TGI (%) (LU-01-0426; LU-01-0426, 30 mg/kg compound 1): 84%
Terminal body weight changes (%) (LU-01-0426; LU-01-0426, 30 mg/kg compound 1, day 1 to day 21): 1.8%
TGI (%) (LU-01-0426; LU-01-0426, 60 mg/kg compound 1): 106.3%
Terminal body weight changes (%) (LU-01-0426; LU-01-0426, 60 mg/kg compound 1, day 1 to day 21): −2%
TGI (%) (LU-0387; LU-0387, 30 mg/kg compound 1): 42%
Terminal body weight changes (%) (LU-0387; LU-0387, 30 mg/kg compound 1, day 1 to day 21): −7.75%
TGI (%) (LU-0387; LU-0387, 60 mg/kg compound 1): 95%
Terminal body weight changes (%) (LU-0387; LU-0387, 60 mg/kg compound 1, day 1 to day 21): 1.26%
IC50 (EGFR-WT): 1.56 nM
GI50 [1]: 7.06 nM
GI50 [2]: 20.2 nM
pIC50 [3]: 7.28
pIC50 [4]: 6.80
IC50 (EGFR L792F): 1.26 nM
IC50 (EGFR T790M): 0.0526 nM
IC50 (EGFR D770GY): 0.0649 nM
IC50 (EGFR A763_Y764insFHEA): 0.264 nM
IC50 (EGFR L792H): 27.6 nM
IC50 (EGFR T790M/L858R): 0.0639 nM
IC50 (EGFR Del19): 0.175 nM
IC50 (EGFR D770-N771insNPG): 0.063 nM
IC50 [5]: 0.049 nM
